From the CheMixHub viscosity set
± gives the uncertainty stated by the source.

Test: xn = mol fraction of the nth substance listed

CCCCC(CC)COP(=O)(O)OCC(CC)CCCC (stereo not drawn) + Cc1ccccc1C
viscosity [mPa·s], 101 kPa
Settings	x1 = 0.1	x1 = 0.2	x1 = 0.398	x1 = 0.606	x1 = 0.796	x1 = 0.9
303.15 K	1.039 ± 0.007	2.217 ± 0.029	8.93 ± 0.15	29.43 ± 0.56	77.84 ± 1.7	124.5 ± 3.5
308.15 K	0.981 ± 0.007	2.056 ± 0.017	7.798 ± 0.093	24.38 ± 0.4	61.89 ± 1.3	96.93 ± 2.5
313.15 K	0.915 ± 0.007	1.88 ± 0.016	6.923 ± 0.083	20.18 ± 0.33	48.95 ± 1	76.04 ± 1.8
318.15 K	0.867 ± 0.006	1.743 ± 0.016	5.965 ± 0.077	18.03 ± 0.29	41.55 ± 0.85	63.57 ± 1.5

Cc1cccc(O)c1 + c1ccccc1
308.15 K, 101 kPa
Settings	viscosity [mPa·s]
x1 = 0.1019	0.6327 ± 0.0055
x1 = 0.1702	0.7272 ± 0.0062
x1 = 0.305	0.9887 ± 0.0082
x1 = 0.4025	1.282 ± 0.01
x1 = 0.5186	1.693 ± 0.014
x1 = 0.6441	2.436 ± 0.02
x1 = 0.768	3.648 ± 0.03
x1 = 0.8611	4.963 ± 0.041
x1 = 0.9525	6.937 ± 0.056

C[NH+](C)CCO.O=C([O-])CC(O)C(=O)O (stereo not drawn) + O
101 kPa, x2 = 0.89
Settings	viscosity [mPa·s]
298 K	18.3
313 K	10.3

N[C@@H](Cc1c[nH]cn1)C(=O)[O-].[K+] + O
viscosity [mPa·s], 101.3 kPa
Settings	293.15 K	298.15 K	303.15 K	308.15 K	313.15 K	318.15 K	323.15 K
x1 = 0.00475	1.09 ± 0.11	0.9617 ± 0.097	0.8629 ± 0.087	0.7803 ± 0.078	0.7087 ± 0.071	0.648 ± 0.065	0.5955 ± 0.06
x1 = 0.00983	1.242 ± 0.12	1.093 ± 0.11	0.9797 ± 0.098	0.8847 ± 0.089	0.8025 ± 0.081	0.7344 ± 0.074	0.6734 ± 0.068
x1 = 0.0145	1.421 ± 0.14	1.252 ± 0.13	1.119 ± 0.11	1.007 ± 0.1	0.9131 ± 0.092	0.8323 ± 0.083	0.7621 ± 0.076
x1 = 0.02037	1.662 ± 0.17	1.457 ± 0.15	1.299 ± 0.13	1.167 ± 0.12	1.053 ± 0.11	0.9568 ± 0.096	0.8736 ± 0.088
x1 = 0.03224	2.28 ± 0.23	2.002 ± 0.2	1.768 ± 0.18	1.578 ± 0.16	1.417 ± 0.14	1.279 ± 0.13	1.164 ± 0.12
x1 = 0.04399	3.048 ± 0.31	2.632 ± 0.26	2.315 ± 0.23	2.049 ± 0.21	1.828 ± 0.18	1.641 ± 0.16	1.484 ± 0.15

C[N+](=O)[O-] + CC(C)=O
298.15 K, 101 kPa
Settings	viscosity [mPa·s]
x1 = 0.1326	0.356 ± 0.036
x1 = 0.2566	0.3972 ± 0.04
x1 = 0.3714	0.4352 ± 0.044
x1 = 0.479	0.4701 ± 0.048
x1 = 0.5797	0.5032 ± 0.051
x1 = 0.6739	0.5325 ± 0.054
x1 = 0.7631	0.5603 ± 0.056
x1 = 0.8465	0.5855 ± 0.059
x1 = 0.9257	0.6101 ± 0.062

CC(=O)NCC(=O)O + O
viscosity [mPa·s], 101 kPa
Settings	305.15 K	310.15 K	315.15 K
x1 = 3.6e-05	0.7912 ± 0.016	0.7079 ± 0.016	0.6523 ± 0.016
x1 = 7.24e-05	0.7987 ± 0.016	0.7201 ± 0.016	0.6594 ± 0.016
x1 = 0.000108	0.8032 ± 0.016	0.7298 ± 0.016	0.6613 ± 0.016
x1 = 0.000144	0.8098 ± 0.016	0.7307 ± 0.016	0.6623 ± 0.016
x1 = 0.0001823	0.8102 ± 0.016	0.7321 ± 0.016	0.6627 ± 0.016
x1 = 0.000344	0.8162 ± 0.016	0.7345 ± 0.016	0.6658 ± 0.016
x1 = 0.0007167	0.8254 ± 0.016	0.7372 ± 0.016	0.6685 ± 0.016
x1 = 0.001025	0.8325 ± 0.016	0.7401 ± 0.016	0.6724 ± 0.016
x1 = 0.001416	0.8398 ± 0.016	0.7443 ± 0.016	0.6751 ± 0.016
x1 = 0.001792	0.8466 ± 0.017	0.7473 ± 0.016	0.6785 ± 0.016
x1 = 0.002155	0.8523 ± 0.017	0.7499 ± 0.016	0.6822 ± 0.016
x1 = 0.002607	0.8583 ± 0.017	0.7554 ± 0.016	0.6887 ± 0.016
x1 = 0.003011	0.8641 ± 0.017	0.7603 ± 0.016	0.6933 ± 0.016
x1 = 0.003546	0.8721 ± 0.017	0.7654 ± 0.016	0.6996 ± 0.016

C[N+](=O)[O-] + CC(C)O
viscosity [mPa·s]
Settings	293.15 K	298.15 K	303.15 K	313.15 K
101 kPa, x1 = 0.1361	–	1.599 ± 0.16	–	–
101 kPa, x1 = 0.2622	–	1.267 ± 0.13	–	–
101 kPa, x1 = 0.3785	–	1.025 ± 0.1	–	–
101 kPa, x1 = 0.4866	–	0.8807 ± 0.089	–	–
101 kPa, x1 = 0.5871	–	0.7784 ± 0.079	–	–
101 kPa, x1 = 0.6805	–	0.7133 ± 0.072	–	–
101 kPa, x1 = 0.7685	–	0.6771 ± 0.068	–	–
101 kPa, x1 = 0.8503	–	0.6562 ± 0.066	–	–
101 kPa, x1 = 0.9277	–	0.6386 ± 0.064	–	–
101.33 kPa, x2 = 0.0502	0.629 ± 0.006	–	0.561 ± 0.005	0.504 ± 0.005
101.33 kPa, x2 = 0.1001	0.624 ± 0.006	–	0.552 ± 0.005	0.494 ± 0.005
101.33 kPa, x2 = 0.1501	0.623 ± 0.006	–	0.55 ± 0.005	0.49 ± 0.005
101.33 kPa, x2 = 0.2003	0.633 ± 0.006	–	0.554 ± 0.005	0.491 ± 0.005
101.33 kPa, x2 = 0.25	0.649 ± 0.006	–	0.564 ± 0.005	0.496 ± 0.005
101.33 kPa, x2 = 0.3	0.672 ± 0.006	–	0.579 ± 0.005	0.507 ± 0.005
101.33 kPa, x2 = 0.35	0.701 ± 0.007	–	0.597 ± 0.006	0.518 ± 0.005
101.33 kPa, x2 = 0.4001	0.731 ± 0.007	–	0.616 ± 0.006	0.535 ± 0.005
101.33 kPa, x2 = 0.4501	0.772 ± 0.007	–	0.647 ± 0.006	0.552 ± 0.005
101.33 kPa, x2 = 0.5	0.817 ± 0.008	–	0.679 ± 0.006	0.574 ± 0.005
101.33 kPa, x2 = 0.55	0.868 ± 0.008	–	0.716 ± 0.007	0.601 ± 0.006
101.33 kPa, x2 = 0.6	0.927 ± 0.008	–	0.758 ± 0.007	0.639 ± 0.006
101.33 kPa, x2 = 0.65	1 ± 0.009	–	0.811 ± 0.007	0.673 ± 0.006
101.33 kPa, x2 = 0.7	1.082 ± 0.01	–	0.867 ± 0.008	0.71 ± 0.007
101.33 kPa, x2 = 0.75	1.182 ± 0.011	–	0.937 ± 0.009	0.764 ± 0.007
101.33 kPa, x2 = 0.8	1.326 ± 0.012	–	1.044 ± 0.01	0.837 ± 0.008
101.33 kPa, x2 = 0.85	1.485 ± 0.013	–	1.154 ± 0.01	0.917 ± 0.008
101.33 kPa, x2 = 0.9	1.698 ± 0.015	–	1.302 ± 0.012	1.023 ± 0.009
101.33 kPa, x2 = 0.95	1.988 ± 0.018	–	1.503 ± 0.013	1.159 ± 0.011

Cc1cccc(O)c1 + CC(=O)c1ccccc1
303.15 K, 101 kPa
Settings	viscosity [mPa·s]
x2 = 0.139	8.438 ± 0.071
x2 = 0.1802	8.063 ± 0.068
x2 = 0.27	7.268 ± 0.061
x2 = 0.4388	5.843 ± 0.05
x2 = 0.4644	5.63 ± 0.048
x2 = 0.5506	4.927 ± 0.043
x2 = 0.7407	3.39 ± 0.03
x2 = 0.8321	2.684 ± 0.024
x2 = 0.9266	2 ± 0.018
